Assay results as given in PubChem BioAssay AID1963827 (Molecular Pharmacology Branch, DTP, NCI, 2024).

Tested on: 994946-033-R-J1-PDC complex spheroid viability
Assay: Anticancer human tumor 994946-033-R-J1-PDC patient-derived melanoma cell line growth inhibition [POLQ]
Conditions: for IC50: curve of first compound; for viability, T/C: stronger effect = lower value
Outline: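 Patient-derived tumour cells were co-cultured with HUVEC and mesenchymal stem cells as multicellular spheroids at 37 °C. They were treated with POLQ inhibitors (novobiocin, ART-558, RP6685) alone or combined with other agents. Top concentrations were at or near clinical Cmax (otherwise 10 microM; SN-38 at 1 microM), decreasing in half-log steps.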

[1] = second compound 0.0316 µM, first compound 0.0316 µM
[2] = second compound 0.0316 µM, first compound 0.1 µM
[3] = second compound 0.0316 µM, first compound 0.316 µM
[4] = second compound 0.0316 µM, first compound 1 µM
[5] = second compound 0.1 µM, first compound 0.0316 µM
[6] = second compound 0.1 µM, first compound 0.1 µM
[7] = second compound 0.1 µM, first compound 0.316 µM
[8] = second compound 0.1 µM, first compound 1 µM
[9] = second compound 0.316 µM, first compound 0.0316 µM
[10] = second compound 0.316 µM, first compound 0.1 µM
[11] = second compound 0.316 µM, first compound 0.316 µM
[12] = second compound 0.316 µM, first compound 1 µM
[13] = second compound 1 µM, first compound 0.0316 µM
[14] = second compound 1 µM, first compound 0.1 µM
[15] = second compound 1 µM, first compound 0.316 µM
[16] = second compound 1 µM, first compound 1 µM
[17] = second compound 3.16 µM, first compound 0.0316 µM
[18] = second compound 3.16 µM, first compound 0.1 µM
[19] = second compound 3.16 µM, first compound 0.316 µM
[20] = second compound 3.16 µM, first compound 1 µM
[21] = second compound 10 µM, first compound 0.0316 µM
[22] = second compound 10 µM, first compound 0.1 µM
[23] = second compound 10 µM, first compound 0.316 µM
[24] = second compound 10 µM, first compound 1 µM
[25] = second compound 0.0316 µM, first compound 3.16 µM
[26] = second compound 0.0316 µM, first compound 10 µM
[27] = second compound 0.1 µM, first compound 3.16 µM
[28] = second compound 0.1 µM, first compound 10 µM
[29] = second compound 0.316 µM, first compound 3.16 µM
[30] = second compound 0.316 µM, first compound 10 µM
[31] = second compound 1 µM, first compound 3.16 µM
[32] = second compound 1 µM, first compound 10 µM
[33] = second compound 3.16 µM, first compound 3.16 µM
[34] = second compound 3.16 µM, first compound 10 µM
[35] = second compound 10 µM, first compound 3.16 µM
[36] = second compound 10 µM, first compound 10 µM
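Note: spheroids exposed to drugs for 7 days.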
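Throughout, for viability, T/C: 100% = DMSO vehicle treated spheroids.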

Work on `C=CCn1c(=O)c2cnc(Nc3ccc(N4CCN(C)CC4)cc3)nc2n1-c1cccc(C(C)(C)O)n1` + Nc1ccc(C#CCN(C(=O)Cc2ncc(C(F)(F)F)cc2C(F)(F)F)c2ccc(F)cc2)nn1 yielded an IC50 (second compound 0.0316 µM) of 0.837 µM, an IC50 (second compound 0.1 µM) of 0.444 µM and an IC50 (second compound 0.316 µM) of 0.397 µM. For the same molecule, the IC50 (second compound 1 µM) was 0.78 µM, the IC50 (second compound 3.16 µM) was 0.712 µM and the IC50 (second compound 10 µM) was 0.643 µM. It also gave a viability, T/C (second compound 0.0316 µM, first compound 0.00316 µM) of 70.3%, a viability, T/C (second compound 0.0316 µM, first compound 0.01 µM) of 122% and a viability, T/C [1] of 80%. The viability, T/C [2] was 95.6%, the viability, T/C [3] was 91.8% and the viability, T/C [4] was 42.4%. For the same molecule, the viability, T/C (second compound 0.1 µM, first compound 0.00316 µM) was 81%, the viability, T/C (second compound 0.1 µM, first compound 0.01 µM) was 107% and the viability, T/C [5] was 97.8%. The viability, T/C [6] was 103%, the viability, T/C [7] was 59.2% and the viability, T/C [8] was 28%. It also gave a viability, T/C (second compound 0.316 µM, first compound 0.00316 µM) of 101%, a viability, T/C (second compound 0.316 µM, first compound 0.01 µM) of 124% and a viability, T/C [9] of 105%. It also gave a viability, T/C [10] of 81.7%, a viability, T/C [11] of 60.2% and a viability, T/C [12] of 20.6%. For the same molecule, the viability, T/C (second compound 1 µM, first compound 0.00316 µM) was 123%, the viability, T/C (second compound 1 µM, first compound 0.01 µM) was 100% and the viability, T/C [13] was 147%. It also gave a viability, T/C [14] of 109%, a viability, T/C [15] of 100% and a viability, T/C [16] of 36.2%. The viability, T/C (second compound 3.16 µM, first compound 0.00316 µM) was 109%, the viability, T/C (second compound 3.16 µM, first compound 0.01 µM) was 105% and the viability, T/C [17] was 120%. It also gave a viability, T/C [18] of 85%, a viability, T/C [19] of 84.9% and a viability, T/C [20] of 36.4%. For the same molecule, the viability, T/C (second compound 10 µM, first compound 0.00316 µM) was 106%, the viability, T/C (second compound 10 µM, first compound 0.01 µM) was 82.5% and the viability, T/C [21] was 94.8%. For the same molecule, the viability, T/C [22] was 95.4%, the viability, T/C [23] was 67.4% and the viability, T/C [24] was 39.1%.

With `CCCS(=O)(=O)Nc1ccc(F)c(C(=O)c2c[nH]c3ncc(-c4ccc(Cl)cc4)cc23)c1F` + Nc1ccc(C#CCN(C(=O)Cc2ncc(C(F)(F)F)cc2C(F)(F)F)c2ccc(F)cc2)nn1 the IC50 (second compound 0.0316 µM) was 6.87 µM, the IC50 (second compound 0.1 µM) was 6.95 µM and the IC50 (second compound 0.316 µM) was 6.8 µM. The IC50 (second compound 1 µM) was 7.46 µM, the IC50 (second compound 3.16 µM) was 7.31 µM and the IC50 (second compound 10 µM) was 6.3 µM. The viability, T/C [1] was 64.2%, the viability, T/C [2] was 88% and the viability, T/C [3] was 102%. For the same molecule, the viability, T/C [4] was 75.3%, the viability, T/C [25] was 107% and the viability, T/C [26] was 31.9%. It also gave a viability, T/C [5] of 99.6%, a viability, T/C [6] of 93% and a viability, T/C [7] of 95.9%. It also gave a viability, T/C [8] of 115%, a viability, T/C [27] of 100% and a viability, T/C [28] of 26.8%. It also gave a viability, T/C [9] of 80.6%, a viability, T/C [10] of 98.9% and a viability, T/C [11] of 93.9%. The viability, T/C [12] was 118%, the viability, T/C [29] was 84.5% and the viability, T/C [30] was 32.5%. The viability, T/C [13] was 84.5%, the viability, T/C [14] was 94.2% and the viability, T/C [15] was 114%. It also gave a viability, T/C [16] of 124%, a viability, T/C [31] of 108% and a viability, T/C [32] of 31.3%. The viability, T/C [17] was 95.5%, the viability, T/C [18] was 134% and the viability, T/C [19] was 99.2%. For the same molecule, the viability, T/C [20] was 127%, the viability, T/C [33] was 90.9% and the viability, T/C [34] was 34.6%. The viability, T/C [21] was 114%, the viability, T/C [22] was 85% and the viability, T/C [23] was 85.9%. It also gave a viability, T/C [24] of 96.2%, a viability, T/C [35] of 95.6% and a viability, T/C [36] of 19.6%.

`CNCc1ccc(-c2[nH]c3cc(F)cc4c3c2CCNC4=O)cc1` + Nc1ccc(C#CCN(C(=O)Cc2ncc(C(F)(F)F)cc2C(F)(F)F)c2ccc(F)cc2)nn1 was tested, and the IC50 (second compound 0.0316 µM) was > 10 µM, the IC50 (second compound 0.1 µM) was > 10 µM and the IC50 (second compound 0.316 µM) was > 10 µM. The IC50 (second compound 1 µM) was > 10 µM, the IC50 (second compound 3.16 µM) was > 10 µM and the IC50 (second compound 10 µM) was > 10 µM. It also gave a viability, T/C [1] of 97.4%, a viability, T/C [2] of 84.1% and a viability, T/C [3] of 84%. For the same molecule, the viability, T/C [4] was 85.3%, the viability, T/C [25] was 94.5% and the viability, T/C [26] was 79%. It also gave a viability, T/C [5] of 77.9%, a viability, T/C [6] of 83.1% and a viability, T/C [7] of 99.7%. The viability, T/C [8] was 61.5%, the viability, T/C [27] was 95.8% and the viability, T/C [28] was 70.6%. It also gave a viability, T/C [9] of 81.7%, a viability, T/C [10] of 86.4% and a viability, T/C [11] of 90%. For the same molecule, the viability, T/C [12] was 68.8%, the viability, T/C [29] was 77.2% and the viability, T/C [30] was 69.1%. For the same molecule, the viability, T/C [13] was 73.4%, the viability, T/C [14] was 69.2% and the viability, T/C [15] was 107%. It also gave a viability, T/C [16] of 77.9%, a viability, T/C [31] of 103% and a viability, T/C [32] of 63.1%. For the same molecule, the viability, T/C [17] was 105%, the viability, T/C [18] was 105% and the viability, T/C [19] was 85%. The viability, T/C [20] was 107%, the viability, T/C [33] was 74.2% and the viability, T/C [34] was 77.5%. The viability, T/C [21] was 72%, the viability, T/C [22] was 74.2% and the viability, T/C [23] was 88.7%. It also gave a viability, T/C [24] of 113%, a viability, T/C [35] of 96% and a viability, T/C [36] of 78.3%.
